In patent publication US20080193619A1, “Use of Fullerence C60 as an Oil Stabilizer” (UNI PHARMA HOLDING AS, priority 2005, published 2008):

Tests used:
[1] = Storage (shelf life) test of salmon oil stabilized with antioxidant, degree of oxidation in fatty acids; parameters: degree of oxidation in fatty acids: unit not given here; settings: for degree of oxidation in fatty acids: fullerene C60 0.001%, rosemary 0.1%
Procedure: FIG. 2. Shelf life tests for salmon oil stabilized with fullerene or rosemary. The results are given as the change in the oxidation level of fatty acids in the oil. The antioxidants rosemary and fullerene were present at 0.1% and 0.001% by weight, respectively.
Research on storage of salmon oil was carried out at temperatures of 25° C. and 5° C. during the time period from Jun. 11, 2003 to Nov. 10, 2004 (17 months). The quality of the rosemary and fullerene C60 as antioxidants in salmon oil was studied in parallel during the entire duration of the experiment.
The concentration of the two chosen antioxidants used in the experiment were obtained by an addition of 0.1% rosemary (the same concentration used in the products UNIC Omega-3 and AniMega) and 0.001% fullerene C60.
Standard methods of defining the degree of oxidation in fatty acids were used during selected time periods during the storage test. FIG. 2. presents data from a storage temperature of 5° C.

[2] = Organoleptic testing (taste and smell) of stabilized salmon oil; settings: salmon oil with the additive, organoleptic test
Procedure: With basis in salmon oil as a nutritional supplement, organoleptic characteristics (determination of the quality of the oil by taste and smell) are also of importance. Standardized methods for organoleptic testing were utilized: one drop of salmon oil was placed on the arm and applied in a thin layer by means of a piece of glass. After one minute the quality of the oil could be determined by taste and smell. Five different individuals were tested, once per week, to obtain independent results. […] Both smell and taste was satisfactory at this point in time, and better for fullerene, witch kept well for 600 days, than for rosemary, witch only kept for 300 days.

[3] = In vitro experiments: cytotoxicity and hepatotoxicity; type: cell-based; settings: concentrations up to 100 mM in water
[4] = system: cellular membranes; test: In vitro experiments: cellular respiration and cellular membranes; type: cell-based
[5] = In vitro experiments: antioxidant activity
[6] = In vitro experiments: blood fibrillation
[7] = In vivo experiments: toxicity, immunogenicity, allergenicity; settings: dosages up to 25 mg/kg (0.0025% by weight) in aqueous solution
[8] = concentrations up to 100 mM in water

SMILES: c12c3c4c5c1c1c6c7c2c2c8c3c3c9c4c4c%10c5c5c1c1c6c6c%11c7c2c2c7c8c3c3c8c9c4c4c9c%10c5c5c1c1c6c6c%11c2c2c7c3c3c8c4c4c9c5c1c1c6c2c3c41 [fullerene C60]
- keeping time of stabilized fish oil ([1]; fish oil stabilized with the antioxidant): 600 days
- degree of oxidation in fatty acids ([1]; salmon oil, 5 C., day 0 (11.06)): 0.00036
- degree of oxidation in fatty acids ([1]; salmon oil, 5 C., day 14 (25.06)): 0.00083
- degree of oxidation in fatty acids ([1]; salmon oil, 5 C., day 81 (8.09)): 0.0010
- degree of oxidation in fatty acids ([1]; salmon oil, 5 C., day 95 (22.09)): 0.00095
- degree of oxidation in fatty acids ([1]; salmon oil, 5 C., day 109 (6.10)): 0.0014
- degree of oxidation in fatty acids ([1]; salmon oil, 5 C., day 123 (20.10)): 0.0012
- degree of oxidation in fatty acids ([1]; salmon oil, 5 C., day 185 (21.12)): 0.0023
- degree of oxidation in fatty acids ([1]; salmon oil, 5 C., day 200 (05.01)): 0.0027
- degree of oxidation in fatty acids ([1]; salmon oil, 5 C., day 214 (19.01)): 0.0028
- degree of oxidation in fatty acids ([1]; salmon oil, 5 C., day 228 (02.02)): 0.0028
- degree of oxidation in fatty acids ([1]; salmon oil, 5 C., day 242 (16.02)): 0.0030
- degree of oxidation in fatty acids ([1]; salmon oil, 5 C., day 256 (2.03)): 0.0030
- degree of oxidation in fatty acids ([1]; salmon oil, 5 C., day 270 (16.03)): 0.0031
- degree of oxidation in fatty acids ([1]; salmon oil, 5 C., day 284 (30.03)): 0.0033
- degree of oxidation in fatty acids ([1]; salmon oil, 5 C., day 298 (13.04)): 0.0037
- degree of oxidation in fatty acids ([1]; salmon oil, 5 C., day 312 (27.04)): 0.0039
- degree of oxidation in fatty acids ([1]; salmon oil, 5 C., day 326 (11.05)): 0.0040
- degree of oxidation in fatty acids ([1]; salmon oil, 5 C., day 340 (25.05)): 0.0043
- degree of oxidation in fatty acids ([1]; salmon oil, 5 C., day 354 (8.06)): 0.0046
- degree of oxidation in fatty acids ([1]; salmon oil, 5 C., day 368 (22.06)): 0.0048
- degree of oxidation in fatty acids ([1]; salmon oil, 5 C., day 372 (06.07)): 0.0050
- degree of oxidation in fatty acids ([1]; salmon oil, 5 C., day 386 (20.07)): 0.0052
- degree of oxidation in fatty acids ([1]; salmon oil, 5 C., day 414 (15.08)): 0.0054
- degree of oxidation in fatty acids ([1]; salmon oil, 5 C., day 428 (29.08)): 0.0055
- degree of oxidation in fatty acids ([1]; salmon oil, 5 C., day 442 (12.09)): 0.0058
- degree of oxidation in fatty acids ([1]; salmon oil, 5 C., day 456 (26.09)): 0.0061
- degree of oxidation in fatty acids ([1]; salmon oil, 5 C., day 470 (10.10)): 0.0065
- degree of oxidation in fatty acids ([1]; salmon oil, 5 C., day 484 (24.10)): 0.0066
- degree of oxidation in fatty acids ([1]; salmon oil, 25 C., day 0 (11.06)): 0.00036
- degree of oxidation in fatty acids ([1]; salmon oil, 25 C., day 14 (25.06)): 0.00076
- degree of oxidation in fatty acids ([1]; salmon oil, 25 C., day 81 (8.09)): 0.0020
- degree of oxidation in fatty acids ([1]; salmon oil, 25 C., day 95 (22.09)): 0.0031
- degree of oxidation in fatty acids ([1]; salmon oil, 25 C., day 109 (6.10)): 0.0090
- degree of oxidation in fatty acids ([1]; salmon oil, 25 C., day 123 (20.10)): 0.0015
- degree of oxidation in fatty acids ([1]; salmon oil, 25 C., day 185 (21.12)): 0.012
- degree of oxidation in fatty acids ([1]; salmon oil, 25 C., day 200 (05.01)): 0.015
- degree of oxidation in fatty acids ([1]; salmon oil, 25 C., day 214 (19.01)): 0.022
- degree of oxidation in fatty acids ([1]; salmon oil, 25 C., day 228 (02.02)): 0.034
- degree of oxidation in fatty acids ([1]; salmon oil, 25 C., day 242 (16.02)): 0.037
- degree of oxidation in fatty acids ([1]; salmon oil, 25 C., day 256 (2.03)): 0.038
- degree of oxidation in fatty acids ([1]; salmon oil, 25 C., day 270 (16.03)): 0.040
- degree of oxidation in fatty acids ([1]; salmon oil, 25 C., day 284 (30.03)): 0.041
- degree of oxidation in fatty acids ([1]; salmon oil, 25 C., day 298 (13.04)): 0.044
- degree of oxidation in fatty acids ([1]; salmon oil, 25 C., day 312 (27.04)): 0.047
- degree of oxidation in fatty acids ([1]; salmon oil, 25 C., day 326 (11.05)): 0.049
- degree of oxidation in fatty acids ([1]; salmon oil, 25 C., day 340 (25.05)): 0.054
- degree of oxidation in fatty acids ([1]; salmon oil, 25 C., day 354 (8.06)): 0.059
- degree of oxidation in fatty acids ([1]; salmon oil, 25 C., day 368 (22.06)): 0.063
- degree of oxidation in fatty acids ([1]; salmon oil, 25 C., day 372 (06.07)): 0.066
- degree of oxidation in fatty acids ([1]; salmon oil, 25 C., day 386 (20.07)): 0.068
- degree of oxidation in fatty acids ([1]; salmon oil, 25 C., day 414 (15.08)): 0.070
- degree of oxidation in fatty acids ([1]; salmon oil, 25 C., day 428 (29.08)): 0.072
- degree of oxidation in fatty acids ([1]; salmon oil, 25 C., day 442 (12.09)): 0.080
- degree of oxidation in fatty acids ([1]; salmon oil, 25 C., day 456 (26.09)): 0.085
- degree of oxidation in fatty acids ([1]; salmon oil, 25 C., day 470 (10.10)): 0.088
- degree of oxidation in fatty acids ([1]; salmon oil, 25 C., day 484 (24.10)): 0.089
- effectiveness as additive (antioxidant) compared with rosemary ([1]; salmon oil, temperature of 5 C): more effective additive than rosemary
- time the oil kept (smell and taste) [2]: 600 days
- cytotoxicity [3]: not cytotoxic
- hepatotoxicity [3]: not cytotoxic or hepatoxic
- inhibition of cellular respiration [4, 8]: does not inhibit cellular respiration
- inhibition of membrane catalytic activity [4, 8]: does not inhibit cellular respiration or inhibition of membrane catalytic activity
- stabilization of cellular membranes ([4]; stability during unfavourable conditions): stabilizes cellular membranes
- antioxidant activity compared with ionol, vitamin E and beta-carotene [5]: greater than ionol, vitamin E, and beta-carotene
- effect on blood fibrillation [6]: no bearing on blood fibrillation
- allergenicity in vivo [7]: not toxic, immunogenic, or an allergen
- immunogenicity in vivo [7]: not toxic, immunogenic
- toxicity in vivo [7]: not toxic
